Calls of active or inactive are those of the source.
Assays:
[1] = biological target: Induced myeloid leukemia cell differentiation protein Mcl-1 (Homo sapiens, UniProt Q07820); format: functional
Aminopeptidase N = biological target: T1, Aminopeptidase N (Plasmodium falciparum FcB1/Columbia, UniProt O96935); assay: malaria alanyl aminopeptidase activity blockers – biochemical, fluorogenic H-Leu-NHMec substrate, 1536-well (AID 1445); design: species or system Plasmodium falciparum 3D7, 3D7
T1 sequence (O96935 whole entry): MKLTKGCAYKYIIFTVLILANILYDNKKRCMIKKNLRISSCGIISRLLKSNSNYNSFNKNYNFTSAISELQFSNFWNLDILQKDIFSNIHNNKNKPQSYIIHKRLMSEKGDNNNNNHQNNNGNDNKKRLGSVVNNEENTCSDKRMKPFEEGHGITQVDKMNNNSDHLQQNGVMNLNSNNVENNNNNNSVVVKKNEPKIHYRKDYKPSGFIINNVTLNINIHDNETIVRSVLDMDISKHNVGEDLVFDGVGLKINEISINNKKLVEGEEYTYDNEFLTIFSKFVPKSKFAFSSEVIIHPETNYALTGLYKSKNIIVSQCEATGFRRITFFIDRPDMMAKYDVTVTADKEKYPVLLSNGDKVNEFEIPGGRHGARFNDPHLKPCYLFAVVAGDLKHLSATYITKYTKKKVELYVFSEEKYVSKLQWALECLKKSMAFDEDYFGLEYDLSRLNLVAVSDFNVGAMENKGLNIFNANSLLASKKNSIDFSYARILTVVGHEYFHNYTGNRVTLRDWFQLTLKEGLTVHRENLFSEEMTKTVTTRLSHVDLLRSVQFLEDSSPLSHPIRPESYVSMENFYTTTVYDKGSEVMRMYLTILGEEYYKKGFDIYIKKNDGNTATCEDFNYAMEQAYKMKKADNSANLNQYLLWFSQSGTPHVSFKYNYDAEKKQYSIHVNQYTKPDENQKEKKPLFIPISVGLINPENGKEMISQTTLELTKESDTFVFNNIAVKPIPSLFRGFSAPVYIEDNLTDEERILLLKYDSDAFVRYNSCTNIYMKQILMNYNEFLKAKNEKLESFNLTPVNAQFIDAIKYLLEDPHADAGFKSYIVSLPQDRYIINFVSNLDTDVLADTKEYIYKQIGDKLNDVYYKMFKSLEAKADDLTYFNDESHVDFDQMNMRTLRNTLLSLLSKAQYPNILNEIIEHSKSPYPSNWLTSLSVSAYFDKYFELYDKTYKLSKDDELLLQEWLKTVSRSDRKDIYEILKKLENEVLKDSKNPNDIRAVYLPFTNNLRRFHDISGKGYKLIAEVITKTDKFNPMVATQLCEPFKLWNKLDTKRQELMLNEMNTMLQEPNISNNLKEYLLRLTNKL

[2] = biological target: T2, High affinity choline transporter 1 (Homo sapiens, UniProt Q9GZV3); assay: human choline transporter blockers, potency – cell-based, 5-point CRC, membrane potential dye, dose response (AID 504840); format: functional
T2 sequence (Q9GZV3 whole entry): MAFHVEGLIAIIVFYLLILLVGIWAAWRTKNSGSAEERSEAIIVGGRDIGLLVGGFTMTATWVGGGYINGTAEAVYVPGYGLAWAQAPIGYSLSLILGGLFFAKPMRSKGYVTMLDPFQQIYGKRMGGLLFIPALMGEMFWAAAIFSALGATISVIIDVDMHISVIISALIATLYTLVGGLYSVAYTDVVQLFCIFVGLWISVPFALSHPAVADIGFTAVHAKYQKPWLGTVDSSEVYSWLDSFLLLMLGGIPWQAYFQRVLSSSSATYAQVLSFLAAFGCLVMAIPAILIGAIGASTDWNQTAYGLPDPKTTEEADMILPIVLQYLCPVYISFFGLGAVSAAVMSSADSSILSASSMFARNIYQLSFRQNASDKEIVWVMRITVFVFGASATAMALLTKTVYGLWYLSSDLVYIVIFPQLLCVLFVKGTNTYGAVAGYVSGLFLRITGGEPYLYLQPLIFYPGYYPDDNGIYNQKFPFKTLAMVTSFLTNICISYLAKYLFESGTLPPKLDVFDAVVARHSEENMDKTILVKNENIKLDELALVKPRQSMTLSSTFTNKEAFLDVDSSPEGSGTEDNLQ

Leucine aminopeptidase = biological target: T3, Leucine aminopeptidase (Plasmodium falciparum 3D7, UniProt Q8IL11); assay: P. falciparum M17LAP inhibitors, primary screen, biochemical, fluorogenic H-Leu-NHMec substrate, 1536-well (AID 1619); format: functional
T3 sequence (Q8IL11 whole entry): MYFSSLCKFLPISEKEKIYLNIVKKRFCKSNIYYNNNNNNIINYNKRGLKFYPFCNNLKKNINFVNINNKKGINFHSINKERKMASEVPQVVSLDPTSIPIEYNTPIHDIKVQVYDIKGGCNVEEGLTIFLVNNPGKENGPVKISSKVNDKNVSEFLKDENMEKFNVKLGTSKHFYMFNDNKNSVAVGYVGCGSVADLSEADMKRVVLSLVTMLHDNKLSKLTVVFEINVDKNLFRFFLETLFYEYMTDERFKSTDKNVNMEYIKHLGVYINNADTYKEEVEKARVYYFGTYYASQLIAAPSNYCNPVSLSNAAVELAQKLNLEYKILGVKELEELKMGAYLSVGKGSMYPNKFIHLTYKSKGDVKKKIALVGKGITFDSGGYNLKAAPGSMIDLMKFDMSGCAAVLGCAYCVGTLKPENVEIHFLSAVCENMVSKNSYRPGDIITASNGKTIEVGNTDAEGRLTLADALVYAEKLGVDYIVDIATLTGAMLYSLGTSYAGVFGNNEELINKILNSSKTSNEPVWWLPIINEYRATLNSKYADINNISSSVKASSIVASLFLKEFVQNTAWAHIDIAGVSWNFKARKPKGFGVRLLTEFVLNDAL

Genome polyprotein = Genome polyprotein (dengue virus type 2, UniProt P29990); assay: flavivirus cap methylation enzyme inhibition – biochemical, confirmation dose response, primary screen (AID 588689); format: functional
Protein RecA = biological target: T4, Protein RecA (Mycobacterium tuberculosis, UniProt P9WHJ3); assay: Fluorescence Cell-Free Homogeneous Dose Retest to Identify Inhibitors of RecA-Intein Splicing Activity. [Related pubchem assays (depositor defined):AID2097, AID2223, AID489010, AID492950]; format: functional
T4 sequence (P9WHJ3 whole entry): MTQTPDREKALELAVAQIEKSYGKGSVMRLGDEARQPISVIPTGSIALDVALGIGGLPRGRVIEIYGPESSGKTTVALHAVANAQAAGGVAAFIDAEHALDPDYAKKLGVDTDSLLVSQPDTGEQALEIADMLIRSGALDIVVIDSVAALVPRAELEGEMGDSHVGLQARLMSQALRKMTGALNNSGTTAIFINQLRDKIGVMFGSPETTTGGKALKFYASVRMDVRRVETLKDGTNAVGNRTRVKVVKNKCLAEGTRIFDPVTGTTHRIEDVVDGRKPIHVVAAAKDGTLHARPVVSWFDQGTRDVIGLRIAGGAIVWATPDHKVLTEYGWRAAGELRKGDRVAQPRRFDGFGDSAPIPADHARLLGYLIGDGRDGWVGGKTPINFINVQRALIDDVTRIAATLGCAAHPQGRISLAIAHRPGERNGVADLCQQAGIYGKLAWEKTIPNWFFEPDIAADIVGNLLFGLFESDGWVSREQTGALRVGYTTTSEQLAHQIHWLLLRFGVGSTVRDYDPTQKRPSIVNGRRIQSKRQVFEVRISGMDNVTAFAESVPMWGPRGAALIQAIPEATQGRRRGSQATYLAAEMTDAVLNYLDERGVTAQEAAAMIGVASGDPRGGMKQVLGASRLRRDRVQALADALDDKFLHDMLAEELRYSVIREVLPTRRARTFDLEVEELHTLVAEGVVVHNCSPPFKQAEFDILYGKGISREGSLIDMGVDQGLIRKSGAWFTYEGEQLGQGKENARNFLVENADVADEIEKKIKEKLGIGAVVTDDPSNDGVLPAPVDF

[3] = biological target: T5, Replicative DNA helicase DnaB (Mycobacterium tuberculosis, UniProt P9WMR3); assay: DnaB intein splicing inhibitors, dose response, biochemical, cell-free fluorescence (AID 449749); format: functional
T5 sequence (P9WMR3 whole entry): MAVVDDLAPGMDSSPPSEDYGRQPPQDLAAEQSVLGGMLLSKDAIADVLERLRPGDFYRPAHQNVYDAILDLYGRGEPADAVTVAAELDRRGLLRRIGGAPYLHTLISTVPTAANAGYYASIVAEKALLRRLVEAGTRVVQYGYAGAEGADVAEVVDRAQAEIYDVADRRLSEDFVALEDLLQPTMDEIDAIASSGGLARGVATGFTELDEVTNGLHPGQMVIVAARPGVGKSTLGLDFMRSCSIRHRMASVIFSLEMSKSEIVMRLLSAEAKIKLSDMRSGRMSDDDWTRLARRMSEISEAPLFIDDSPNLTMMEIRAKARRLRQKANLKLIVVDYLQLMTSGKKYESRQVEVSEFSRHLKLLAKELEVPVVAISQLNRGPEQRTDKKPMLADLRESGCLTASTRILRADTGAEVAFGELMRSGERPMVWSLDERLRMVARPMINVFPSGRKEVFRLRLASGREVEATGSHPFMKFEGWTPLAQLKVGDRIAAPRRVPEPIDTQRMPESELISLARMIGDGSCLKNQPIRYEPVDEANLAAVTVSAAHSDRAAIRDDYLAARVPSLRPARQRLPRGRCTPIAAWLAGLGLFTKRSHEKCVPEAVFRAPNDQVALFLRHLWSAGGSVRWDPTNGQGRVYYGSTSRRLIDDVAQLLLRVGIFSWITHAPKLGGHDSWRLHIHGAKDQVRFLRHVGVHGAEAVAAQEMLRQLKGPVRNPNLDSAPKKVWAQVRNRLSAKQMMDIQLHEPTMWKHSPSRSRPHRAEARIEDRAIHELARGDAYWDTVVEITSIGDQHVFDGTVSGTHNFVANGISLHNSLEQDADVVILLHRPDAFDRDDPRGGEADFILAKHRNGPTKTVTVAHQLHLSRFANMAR

[4] = Luminescence Cell-Based Dose Response to Identify Activators of 5'UTR Stem-Loop Driven Prion Protein mRNA Translation in H4-C Neuroglioblastoma Cells. [Related pubchem assays: 1829 (Project Summary), 1814 (Primary HTS)]; format: functional
H4 = assay: Luminescence Cell-Based Dose Response HTS to Identify Activators of 5'UTR Stem-Loop Driven Prion Protein mRNA Translation in H4 Neuroglioblastoma Cells. [Related pubchem assays: 1829 (Project Summary), 1814 (Primary HTS)]; format: functional; details: Homo sapiens
[5] = Luminescence Cell-Based Dose Response to Identify Activators of Luciferase Translation or Activity in H4-C Neuroglioblastoma Cells. [Related pubchem assays: 1829 (Project Summary), 1814 (Primary HTS)]; format: functional
[6] = Luminescence Cell-Based Dose Confirmation to Identify Activators of 5'UTR Stem-Loop Driven Alpha-Synuclein mRNA Translation in H4 Neuroglioblastoma Cells. [Related pubchem assays: 1829 (Project Summary), 1814 (Primary HTS)]; format: functional
[7] = Luminescence Cell-Based Dose Response HTS to Identify Activators of Luciferase Translation or Activity in H4 […] Cells. [Related pubchem assays: 1829 (Project Summary), 1814 (Primary HTS)]; format: functional
[8] = Luminescence Cell-Based Dose Confirmation HTS to Identify Activators of 5'UTR Stem-Loop Driven Alpha-Synuclein mRNA Translation in H4 Neuroglioblastoma Cells. [Related pubchem assays: 1829 (Project Summary), 1814 (Primary HTS)]; format: functional
[9] = A cytotoxicity screen of small molecule inhibitors of the PhoP region in Salmonella typhi identified in the primary screen. [Related pubchem assays: 1850, 1864, 1985 ]; format: functional
[10] = biological target: Peroxisome proliferator-activated receptor gamma/Nuclear receptor coactivator 2 (Homo sapiens, UniProt P37231); format: functional;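 note: agonist potency for raising coactivator recruitment to the receptor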
[11] = biological target: Peroxisome proliferator-activated receptor gamma/Nuclear receptor coactivator 1 (Homo sapiens, UniProt P37231); format: functional;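 note: agonist potency as compounds enhance coactivator SRC-1 recruitment to PPARgamma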
[12] = biological target: Peroxisome proliferator-activated receptor gamma/Nuclear receptor coactivator 3 (Homo sapiens, UniProt P37231); format: functional;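 note: agonist potency for raising coactivator recruitment to the receptor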
Cytochrome P450 2C19 = Cytochrome P450 2C19 (Homo sapiens, UniProt P33261); assay: Cytochrome panel assay with activity outcomes. Panel member name: p450-cyp2c19 Compounds with AC50 equal or less than 10 uM are considered active; format: functional; details: read-out: AC50
Cytochrome P450 2C19, sequence (P33261 whole entry): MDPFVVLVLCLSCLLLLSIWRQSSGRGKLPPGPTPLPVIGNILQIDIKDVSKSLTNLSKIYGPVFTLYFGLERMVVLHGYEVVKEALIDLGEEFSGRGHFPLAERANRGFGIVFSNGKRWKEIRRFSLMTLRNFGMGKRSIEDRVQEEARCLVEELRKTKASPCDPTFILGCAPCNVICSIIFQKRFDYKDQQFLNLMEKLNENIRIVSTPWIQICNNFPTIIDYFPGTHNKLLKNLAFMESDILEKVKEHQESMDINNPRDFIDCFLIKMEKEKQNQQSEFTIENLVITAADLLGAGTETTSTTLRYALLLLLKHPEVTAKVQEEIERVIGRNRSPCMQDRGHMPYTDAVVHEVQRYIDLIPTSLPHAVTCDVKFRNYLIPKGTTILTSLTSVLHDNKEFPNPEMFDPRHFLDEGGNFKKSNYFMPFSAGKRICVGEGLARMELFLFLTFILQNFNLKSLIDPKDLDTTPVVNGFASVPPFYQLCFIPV

Peroxisome proliferator-activated receptor gamma/Nuclear receptor coactivator 1, sequence (P37231 whole entry): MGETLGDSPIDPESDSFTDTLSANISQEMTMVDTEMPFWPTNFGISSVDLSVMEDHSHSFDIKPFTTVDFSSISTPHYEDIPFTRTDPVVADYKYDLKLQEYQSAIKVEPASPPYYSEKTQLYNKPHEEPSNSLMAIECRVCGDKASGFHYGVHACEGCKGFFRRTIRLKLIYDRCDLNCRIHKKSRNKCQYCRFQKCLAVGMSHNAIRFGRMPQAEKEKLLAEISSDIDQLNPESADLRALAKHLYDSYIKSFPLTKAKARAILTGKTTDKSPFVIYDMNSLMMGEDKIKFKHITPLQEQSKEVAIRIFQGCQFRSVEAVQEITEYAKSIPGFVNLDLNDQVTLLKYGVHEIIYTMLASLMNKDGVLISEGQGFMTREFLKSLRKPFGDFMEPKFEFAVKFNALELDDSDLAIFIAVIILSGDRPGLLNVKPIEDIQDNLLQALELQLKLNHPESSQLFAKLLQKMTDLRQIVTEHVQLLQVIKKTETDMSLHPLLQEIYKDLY
Peroxisome proliferator-activated receptor gamma/Nuclear receptor coactivator 1, sequence (Q15788 whole entry, further chain): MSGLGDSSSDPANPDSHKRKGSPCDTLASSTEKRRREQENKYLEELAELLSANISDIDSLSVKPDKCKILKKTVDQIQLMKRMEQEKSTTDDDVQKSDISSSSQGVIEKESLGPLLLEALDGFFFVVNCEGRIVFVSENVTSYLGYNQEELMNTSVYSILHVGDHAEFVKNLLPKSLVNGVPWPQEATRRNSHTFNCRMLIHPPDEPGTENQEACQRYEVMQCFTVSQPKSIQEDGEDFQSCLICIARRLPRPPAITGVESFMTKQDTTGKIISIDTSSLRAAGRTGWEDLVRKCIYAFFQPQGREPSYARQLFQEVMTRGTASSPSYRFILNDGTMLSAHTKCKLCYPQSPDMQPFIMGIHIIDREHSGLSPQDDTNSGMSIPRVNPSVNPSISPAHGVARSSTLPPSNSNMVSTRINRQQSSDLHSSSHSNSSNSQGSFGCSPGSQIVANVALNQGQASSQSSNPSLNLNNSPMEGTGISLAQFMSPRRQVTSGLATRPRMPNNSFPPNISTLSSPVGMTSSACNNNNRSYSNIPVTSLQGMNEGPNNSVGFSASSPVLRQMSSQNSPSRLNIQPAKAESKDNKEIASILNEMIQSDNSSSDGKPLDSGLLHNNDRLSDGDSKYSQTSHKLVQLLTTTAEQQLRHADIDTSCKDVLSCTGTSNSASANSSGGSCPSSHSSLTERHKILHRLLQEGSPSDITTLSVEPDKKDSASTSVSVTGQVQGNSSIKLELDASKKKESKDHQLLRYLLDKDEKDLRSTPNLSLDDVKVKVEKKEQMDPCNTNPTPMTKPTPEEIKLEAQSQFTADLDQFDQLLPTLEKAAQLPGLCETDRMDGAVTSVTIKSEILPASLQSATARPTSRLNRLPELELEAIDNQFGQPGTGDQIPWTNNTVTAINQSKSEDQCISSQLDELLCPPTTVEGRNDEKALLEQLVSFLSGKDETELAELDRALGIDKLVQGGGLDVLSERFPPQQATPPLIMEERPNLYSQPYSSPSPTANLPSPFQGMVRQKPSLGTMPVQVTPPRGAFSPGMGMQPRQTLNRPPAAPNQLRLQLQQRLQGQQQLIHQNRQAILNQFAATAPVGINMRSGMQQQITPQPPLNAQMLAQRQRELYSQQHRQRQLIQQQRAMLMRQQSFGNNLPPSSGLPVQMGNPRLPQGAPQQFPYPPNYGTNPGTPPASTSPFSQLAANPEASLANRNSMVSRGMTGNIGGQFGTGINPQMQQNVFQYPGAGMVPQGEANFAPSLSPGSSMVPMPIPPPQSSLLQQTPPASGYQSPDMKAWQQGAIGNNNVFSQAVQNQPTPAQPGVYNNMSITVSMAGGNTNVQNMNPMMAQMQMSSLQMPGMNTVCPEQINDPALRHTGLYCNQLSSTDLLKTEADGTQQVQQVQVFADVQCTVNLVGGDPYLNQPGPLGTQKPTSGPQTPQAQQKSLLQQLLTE
Peroxisome proliferator-activated receptor gamma/Nuclear receptor coactivator 3, sequence (P37231 whole entry): as the sequence (P37231 whole entry) above
Peroxisome proliferator-activated receptor gamma/Nuclear receptor coactivator 3, sequence (Q9Y6Q9 whole entry, further chain): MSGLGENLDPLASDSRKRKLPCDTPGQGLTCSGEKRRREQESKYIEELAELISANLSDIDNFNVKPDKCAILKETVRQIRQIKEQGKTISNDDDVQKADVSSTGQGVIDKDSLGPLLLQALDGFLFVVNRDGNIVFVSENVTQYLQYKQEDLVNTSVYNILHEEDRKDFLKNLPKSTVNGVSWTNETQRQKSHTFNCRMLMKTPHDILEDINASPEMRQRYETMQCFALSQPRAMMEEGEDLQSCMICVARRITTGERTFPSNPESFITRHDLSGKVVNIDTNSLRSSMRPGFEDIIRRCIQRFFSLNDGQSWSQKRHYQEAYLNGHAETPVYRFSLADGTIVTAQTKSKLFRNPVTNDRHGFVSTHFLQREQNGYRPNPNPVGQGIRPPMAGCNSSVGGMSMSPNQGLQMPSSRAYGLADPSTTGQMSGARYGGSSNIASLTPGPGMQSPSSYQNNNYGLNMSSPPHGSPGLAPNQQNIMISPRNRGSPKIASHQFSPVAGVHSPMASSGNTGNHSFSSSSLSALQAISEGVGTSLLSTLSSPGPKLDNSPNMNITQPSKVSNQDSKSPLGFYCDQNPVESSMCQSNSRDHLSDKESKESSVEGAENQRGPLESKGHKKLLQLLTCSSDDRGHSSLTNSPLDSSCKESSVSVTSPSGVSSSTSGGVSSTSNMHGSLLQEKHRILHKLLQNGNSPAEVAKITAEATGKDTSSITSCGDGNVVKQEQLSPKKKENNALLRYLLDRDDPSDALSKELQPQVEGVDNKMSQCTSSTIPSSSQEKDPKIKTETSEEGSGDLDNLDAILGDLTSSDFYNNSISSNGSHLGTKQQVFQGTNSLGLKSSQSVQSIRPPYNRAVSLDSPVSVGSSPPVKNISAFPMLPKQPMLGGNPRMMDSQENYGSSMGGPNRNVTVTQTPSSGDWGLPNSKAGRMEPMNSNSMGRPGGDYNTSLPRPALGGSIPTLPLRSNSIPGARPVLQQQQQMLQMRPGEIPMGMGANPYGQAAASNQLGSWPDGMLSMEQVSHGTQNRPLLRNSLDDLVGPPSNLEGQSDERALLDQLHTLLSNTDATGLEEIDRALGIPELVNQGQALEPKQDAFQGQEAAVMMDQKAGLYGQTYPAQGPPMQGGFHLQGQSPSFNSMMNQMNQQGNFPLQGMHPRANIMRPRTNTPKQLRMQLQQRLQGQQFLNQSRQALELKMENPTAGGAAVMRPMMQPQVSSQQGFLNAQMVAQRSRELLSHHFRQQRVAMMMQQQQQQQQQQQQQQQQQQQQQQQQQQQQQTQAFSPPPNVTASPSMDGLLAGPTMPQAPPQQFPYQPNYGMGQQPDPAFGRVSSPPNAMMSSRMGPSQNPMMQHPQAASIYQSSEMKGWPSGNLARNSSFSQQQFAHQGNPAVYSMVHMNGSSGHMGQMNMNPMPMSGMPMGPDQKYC
Induced myeloid leukemia cell differentiation protein Mcl-1, sequence (Q07820 whole entry): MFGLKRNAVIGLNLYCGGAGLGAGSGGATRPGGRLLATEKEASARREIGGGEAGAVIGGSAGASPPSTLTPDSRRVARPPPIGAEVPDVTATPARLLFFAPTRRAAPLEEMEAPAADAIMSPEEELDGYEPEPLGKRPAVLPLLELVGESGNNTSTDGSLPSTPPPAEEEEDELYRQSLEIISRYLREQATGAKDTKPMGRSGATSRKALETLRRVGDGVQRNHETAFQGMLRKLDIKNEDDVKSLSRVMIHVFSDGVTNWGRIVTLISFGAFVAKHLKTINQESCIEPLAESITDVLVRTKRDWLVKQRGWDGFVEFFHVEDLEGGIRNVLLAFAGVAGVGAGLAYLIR

SMILES: Cc1ccc(NC(S)=NNc2ccc([N+](=O)[O-])cc2S(=O)(=O)Nc2ccccc2C(=O)O)cc1C
- IC50 [1]: 2.99 µM (active)
- IC50 (Aminopeptidase N): 29.5 µM (active)
- IC50 [2]: 12.3 µM (active)
- IC50 (Leucine aminopeptidase): 5.16 µM (active)
- IC50 (Genome polyprotein): > 100 µM (active)

SMILES: COc1ccccc1NC(=O)CSc1nc(O)cc(=O)[nH]1
- IC50 (Leucine aminopeptidase): 74.7 µM (active)

SMILES: CC(C)CC1C(C#N)=C(N)Oc2[nH]nc(-c3ccccc3)c21 (centres undefined)
- EC50 (Protein RecA): 2.13 µM (active)
- AC50 [3]: 5.91 µM (active)
- IC50 (Leucine aminopeptidase): 33.7 µM (active)

SMILES: c1ccc2nc3c(nc2c1)OCC1CCCCN31 (centres undefined)
- EC50 [4]: 1.45 µM (active)
- EC50 (H4): 0.161 µM (active)
- EC50 [5]: 0.49 µM (active)
- EC50 [6]: > 12 µM (not active)
- EC50 [7]: 0.193 µM (active)
- EC50 [8]: 0.475 µM (active)

SMILES: Cn1cnnc1SCC(=O)Nc1ccc2nc(SCc3ccccc3)sc2c1
- EC50 [9]: > 50 µM (active)

SMILES: COc1c(OC)c(O)c2c(=O)cc(-c3c(O)cccc3O)oc2c1OC
- EC50 [10]: > 79.4 µM (not active)
- EC50 [11]: > 79.4 µM (not active)
- EC50 [12]: > 79.4 µM (not active)

SMILES: Cc1cc(OCC(=O)Nc2ccc3oc(-c4ccncc4)nc3c2)ccc1Cl
- EC50 [10]: 25.3 µM (not active)
- EC50 [11]: 24.8 µM (not active)
- EC50 [12]: 50.6 µM (not active)

SMILES: Cn1nnc2cc(NC(=O)Nc3cccc(Cl)c3)ccc21
- EC50 [4]: 0.832 µM (active)
- EC50 (H4): 0.109 µM (active)
- EC50 [5]: 0.553 µM (active)
- EC50 [6]: 0.413 µM (active)
- EC50 [7]: 0.176 µM (active)

SMILES: Cc1cccc(NC(=O)CSc2nc3n[nH]cc3c(=O)[nH]2)c1
- IC50 (Leucine aminopeptidase): 3.88 µM (active)

SMILES: Cc1ccc(N/N=C2/C(=N)N(c3ccccc3)NC2=O)cc1
- EC50 (H4): 10.6 µM (active)
- EC50 [10]: > 79.4 µM (not active)
- EC50 [11]: > 79.4 µM (not active)
- AC50 (Cytochrome P450 2C19): 5.01 µM (inconclusive)
- EC50 [12]: > 79.4 µM (not active)

SMILES: CCN1CCN(C(=O)Nc2ccc(Cc3ccc(NC(=O)N4CCN(CC)CC4)cc3)cc2)CC1
- EC50 [9]: > 50 µM (active)
